For series [1], the system named is T1, tubulin.
T1 construct: other: tubulin 10 μM; extent of assembly measured; asterisk: rate but not ex; tubulin 1.0 μM; [3H]colchicine; [3H]colchicin
The series is described as follows: Inhibition of tubulin polymerization. The class given is biochemical. To be noted: tubulin 10 μM; extent of assembly measured; asterisk: rate but not extent inhibited up to 40 μM.

For series [2], the system named is T1, tubulin. The series is described as follows: Inhibition of [3H]colchicine binding to tubulin. As to conditions: tubulin 1.0 μM, [3H]colchicine 5.0 μM.
For series [3], the system named is Burkitt lymphoma CA46 cells. The series is described as follows: Inhibition of CA46 cell growth. The series is classed as cell-based. As to conditions: Homo sapiens.
The subject of series [4] is MCF-7 human breast carcinoma cell line. The series is described as follows: Inhibition of MCF-7 cell growth. The class given is cell-based.
Series [5] deals with tubulin. To be noted: background statement, literature; cited from earlier work.
Where [6] appears, read: CA46, read-out: Inhibition of CA46 cell growth IC50.

Where two headings read alike, the source gives them in different places. Some results are limits rather than exact numbers.

We go through 15 molecules from patent US20050130221A1, “Synthesis for the preparation of compounds for screening as potential tubulin binding agents” (The Australian National University, priority 2001, published 2005).

For orientation: IC50 means the concentration that gives 50% inhibition. For `COc1ccc(C2=C(C(=O)c3cc(OC)c(OC)c(OC)c3)C(=O)c3cc(OC)c(OC)c(OC)c32)cc1O` [DK-12a-1, 3-(3′-Hydroxy-4′-methoxyphenyl)-4,5,6-trimethoxy-2-(3′,4″,5″-trimethoxybenzoyl)indenone], the IC50 in the series on tubulin [1] is 10 to 40 µM. As a reminder, the melting point is the temperature of the solid-liquid transition. Take `COc1ccc(-c2sc3cc4c(cc3c2C(=O)c2cc(OC)c(OC)c(OC)c2)OCO4)cc1O` [BLF-53-3, 2-(3′-Hydroxy-4′-methoxyphenyl)-5,6-methylendioxy-3-(3″,4″,5″-trimethoxybenzoyl)benzo[b]thiophene]: the melting point lay in the range of 156 to 157 °C. In the series with tubulin [1], this molecule showed an IC50 of over 40 µM. In the series on tubulin [2], the “Inhibition of colchicine binding (% inhibition), 5 μM inhibitor” value (shortened to “Inhibition … (% inhibition), 5 μM inhibitor”) was determined as 2% and the “Inhibition of colchicine binding (% inhibition), 50 μM inhibitor” value (shortened to “Inhibition … (% inhibition), 50 μM inhibitor”) is on record as 31%. In series [3] (setting [6]), the IC50 is over 1000 nM. For the molecule `COc1ccc(C2=C(c3cc(OC)c(OC)c(OC)c3)CCS2)cc1OC(C)=O` [GPF-60-1, 2-(3′-acetoxy-4′-methoxyphenyl)-4,5-dihydro-3-(3″,4″,5″-trimethoxyphenyl)thiophene], in the series on tubulin [1], the IC50 amounted to 3.6 ± 1 µM. Also, in the series on tubulin [2], the “Inhibition … (% inhibition), 5 μM inhibitor” value was determined as 64% and the “Inhibition … (% inhibition), 50 μM inhibitor” value was 88%. Further, the IC50 in series [4] (Homo sapiens, MCF7, read-out: Inhibition of cell growth IC50 (MCF-7)) amounted to 390 nM.

Molecule `COc1ccc2c(C(=O)c3cc(OC)c(OC)c(OC)c3)c(-c3ccc(OC)c(O)c3)sc2c1` [BLF-86-1, 2-(3′-Hydroxy-4′-methoxyphenyl)6-methoxy-3-(3″,4″,5″-trimethoxybenzoyl)benzo[b]thiophene] returned a melting point of 123 to 125 °C. On the same count and under the same terms, under `COc1ccc2c(-c3cc(OC)c(OC)c(OC)c3)c(-c3ccc(OC)c(O)c3)[nH]c2c1` [BLF-61-3, 6-Methoxy-2-(3-hydroxy-4-methoxyphenyl)-3-(3,4,5-trimethoxyphenyl)indole] stands 98 to 99 °C. As to `COc1ccc(/C=C\c2cc(OC)c(OC)c(OC)c2)cc1O` [(A), Combretastatin A4, reference compound], the “Inhibition … (% inhibition), 5 μM inhibitor” value in the series with tubulin [2] was determined as 91%. Also, the IC50 in series [3] (Burkitt lymphoma CA46 cells, read-out: Inhibition of CA46 cell growth IC50) is 1 nM. Consider `COc1ccc(-c2oc3cc(OC)ccc3c2C(O)c2cc(OC)c(OC)c(OC)c2)cc1` (centres unmarked) [BLF-68-3], for which the melting point lay in the range of 53 to 54 °C.

`COc1ccc(-c2oc3cc(OC)ccc3c2Cc2cc(OC)c(OC)c(OC)c2)cc1` [BLF-70-3, 6-Methoxy-2-(4-methoxyphenyl)-3-(3,4,5-trimethoxybenzyl)benzo[b]furan] yielded a melting point of 121 to 122 °C.

In the series on tubulin [1], `COc1ccc2c(C(O)c3ccc(OC)c(O)c3)c(-c3cc(OC)c(OC)c(OC)c3)sc2c1` (centres unmarked) [BLF-34-3] registered an IC50 of 6.1 ± 0.8 µM. In the series with tubulin [2], the “Inhibition … (% inhibition), 5 μM inhibitor” value is given as 5% and the “Inhibition … (% inhibition), 50 μM inhibitor” value came out at 73%. In addition, the IC50 in series [3] (setting [6]) was over 1000 nM. Take `COc1ccc(C(=O)c2cc3cc(O)c(OC)cc3s2)cc1O` [KH-2-2, 5-Hydroxy-2-(3′-hydroxy-4′-methoxybenzoyl)-6-methoxybenzo[b]thiophene]: the IC50 in the series on tubulin [1] is 2.4 ± 0.4 µM.

In the case of `COc1ccc2[nH]c(-c3ccc4c(c3)OCO4)c(-c3cc(OC)c(OC)c(OC)c3)c2c1` [(C)], the tubulin binding activity entry with tubulin [5] was “moderate”. `COc1ccc(-c2sccc2C(=O)c2cc(OC)c(OC)c(OC)c2)cc1O` [BLF-89-3] registered a melting point of 151 to 152 °C. This molecule registered an IC50 in the series on tubulin [1] of 1 ± 0.1 µM. The “Inhibition … (% inhibition), 5 μM inhibitor” value in the series with tubulin [2] is recorded as 67%. Further, the IC50 in series [4] (MCF7, MCF-7 human breast carcinoma cell line, read-out: Inhibition of cell growth IC50 (MCF-7)) came out at 300 nM. As for `COc1ccc2c(C(=O)c3cc(OC)c(OC)c(OC)c3)c(-c3ccc(OC)c(O)c3)oc2c1` [BLF-62-3, 6-Methoxy-2-(3-hydroxy-4-methoxyphenyl)-3-(3,4,5-trimethoxybenzoyl)benzo bifuran], the melting point lay in the range of 68 to 69 °C. On the same count and under the same terms, under `COc1ccc2c(C(O)c3cc(OC)c(OC)c(OC)c3)c(-c3ccc(OC)c(O)c3)oc2c1` (stereo not drawn) [BLF-69-3, 6-Methoxy-2-(3-hydroxy-4-methoxyphenyl)-3-[α-hydroxy-α-(3,4,5-trimethoxyphenyl)methyl]benzo[b]furan] stands 68 to 69 °C. Regarding `COc1ccc(-c2oc3cc(O)c(OC)cc3c2-c2cc(OC)c(OC)c(OC)c2)cc1O` [(D)], the tubulin binding activity result with tubulin [5] is reported as “did not exhibit tubulin binding activity”.
